Measured values taken from the NIST ThermoML archive (doi:10.1016/j.jct.2006.05.008).
Numbers after ± are expanded uncertainties.

Assay: molar heat capacity at constant pressure
Details: 101.33 kPa

CCC[n+]1ccn(C)c1.[Br-] [1-methyl-3-propylimidazolium bromide]
Details	molar heat capacity at constant pressure [J/K/mol]
199.31 K, Crystal, Vacuum adiabatic calorimetry	164.75 ± 0.37
199.46 K, Glass, Small (less than 1 g) adiabatic calorimetry	175.22 ± 0.9
200.05 K, Glass, Small (less than 1 g) adiabatic calorimetry	176.21 ± 0.9
200.67 K, Crystal, Vacuum adiabatic calorimetry	166 ± 0.37
200.97 K, Metastable crystal, Small (less than 1 g) adiabatic calorimetry	168.83 ± 0.88
201.03 K, Crystal, Vacuum adiabatic calorimetry	166.26 ± 0.37
201.36 K, Crystal, Vacuum adiabatic calorimetry	166.53 ± 0.37
202.03 K, Crystal, Vacuum adiabatic calorimetry	167.06 ± 0.37
202.22 K, Glass, Small (less than 1 g) adiabatic calorimetry	178.79 ± 0.92
202.47 K, Glass, Small (less than 1 g) adiabatic calorimetry	180.24 ± 0.93
203.09 K, Crystal, Vacuum adiabatic calorimetry	167.78 ± 0.37
203.39 K, Crystal, Vacuum adiabatic calorimetry	168.1 ± 0.37
203.43 K, Crystal, Vacuum adiabatic calorimetry	167.91 ± 0.37
203.43 K, Metastable crystal, Small (less than 1 g) adiabatic calorimetry	170.24 ± 0.88
204.75 K, Crystal, Vacuum adiabatic calorimetry	169.11 ± 0.37
204.84 K, Glass, Small (less than 1 g) adiabatic calorimetry	187.91 ± 0.96
204.96 K, Glass, Small (less than 1 g) adiabatic calorimetry	184.36 ± 0.94
205.16 K, Crystal, Vacuum adiabatic calorimetry	169.18 ± 0.37
205.49 K, Crystal, Vacuum adiabatic calorimetry	169.21 ± 0.37
205.88 K, Metastable crystal, Small (less than 1 g) adiabatic calorimetry	171.68 ± 0.89
206.12 K, Crystal, Vacuum adiabatic calorimetry	170 ± 0.37
207.12 K, Glass, Small (less than 1 g) adiabatic calorimetry	199.89 ± 1
207.47 K, Crystal, Vacuum adiabatic calorimetry	170.79 ± 0.37
207.56 K, Crystal, Vacuum adiabatic calorimetry	170.75 ± 0.37
207.61 K, Glass, Small (less than 1 g) adiabatic calorimetry	196 ± 1
208.34 K, Metastable crystal, Small (less than 1 g) adiabatic calorimetry	173.15 ± 0.89
208.84 K, Crystal, Vacuum adiabatic calorimetry	171.68 ± 0.37
209.31 K, Glass, Small (less than 1 g) adiabatic calorimetry	214.39 ± 1.1
209.63 K, Crystal, Vacuum adiabatic calorimetry	172.23 ± 0.37
210.02 K, Glass, Small (less than 1 g) adiabatic calorimetry	225.97 ± 1.1
210.2 K, Crystal, Vacuum adiabatic calorimetry	172.56 ± 0.37
210.79 K, Metastable crystal, Small (less than 1 g) adiabatic calorimetry	174.52 ± 0.9
211.34 K, Glass, Small (less than 1 g) adiabatic calorimetry	239.57 ± 1.2
211.57 K, Crystal, Vacuum adiabatic calorimetry	173.4 ± 0.37
211.7 K, Crystal, Vacuum adiabatic calorimetry	173.55 ± 0.37
212.2 K, Liquid, Small (less than 1 g) adiabatic calorimetry	259.73 ± 1.2
212.93 K, Crystal, Vacuum adiabatic calorimetry	174.3 ± 0.38
213.23 K, Metastable crystal, Small (less than 1 g) adiabatic calorimetry	176.24 ± 0.9
213.27 K, Glass, Small (less than 1 g) adiabatic calorimetry	257.87 ± 1.3
213.77 K, Crystal, Vacuum adiabatic calorimetry	174.86 ± 0.38
214.3 K, Crystal, Vacuum adiabatic calorimetry	175.3 ± 0.38
214.46 K, Liquid, Small (less than 1 g) adiabatic calorimetry	259.1 ± 1.2
215.25 K, Liquid, Small (less than 1 g) adiabatic calorimetry	259.12 ± 1.2
215.66 K, Crystal, Vacuum adiabatic calorimetry	176.2 ± 0.38
215.67 K, Metastable crystal, Small (less than 1 g) adiabatic calorimetry	177.87 ± 0.91
215.84 K, Crystal, Vacuum adiabatic calorimetry	176.33 ± 0.38
216.73 K, Liquid, Small (less than 1 g) adiabatic calorimetry	260.04 ± 1.2
217.03 K, Crystal, Vacuum adiabatic calorimetry	177.11 ± 0.38
217.09 K, Liquid, Small (less than 1 g) adiabatic calorimetry	259.63 ± 1.2
217.24 K, Liquid, Small (less than 1 g) adiabatic calorimetry	260 ± 1.2
217.9 K, Liquid, Small (less than 1 g) adiabatic calorimetry	259.51 ± 1.2
217.92 K, Crystal, Vacuum adiabatic calorimetry	177.82 ± 0.38
218.11 K, Metastable crystal, Small (less than 1 g) adiabatic calorimetry	179.69 ± 0.92
218.4 K, Crystal, Vacuum adiabatic calorimetry	178.04 ± 0.38
219.01 K, Liquid, Small (less than 1 g) adiabatic calorimetry	260.43 ± 1.3
219.18 K, Liquid, Small (less than 1 g) adiabatic calorimetry	259.88 ± 1.2
219.24 K, Liquid, Small (less than 1 g) adiabatic calorimetry	260.35 ± 1.3
219.77 K, Crystal, Vacuum adiabatic calorimetry	179.06 ± 0.38
219.98 K, Liquid, Small (less than 1 g) adiabatic calorimetry	259.88 ± 1.2
219.99 K, Crystal, Vacuum adiabatic calorimetry	179.17 ± 0.38
220.54 K, Metastable crystal, Small (less than 1 g) adiabatic calorimetry	181.19 ± 0.92
221.14 K, Crystal, Vacuum adiabatic calorimetry	179.92 ± 0.38
221.23 K, Liquid, Small (less than 1 g) adiabatic calorimetry	260.68 ± 1.3
221.29 K, Liquid, Small (less than 1 g) adiabatic calorimetry	260.8 ± 1.3
222.07 K, Crystal, Vacuum adiabatic calorimetry	180.63 ± 0.38
222.07 K, Liquid, Small (less than 1 g) adiabatic calorimetry	260.23 ± 1.2
222.51 K, Crystal, Vacuum adiabatic calorimetry	180.9 ± 0.38
222.97 K, Metastable crystal, Small (less than 1 g) adiabatic calorimetry	182.89 ± 0.93
223.23 K, Liquid, Small (less than 1 g) adiabatic calorimetry	261 ± 1.3
223.57 K, Liquid, Small (less than 1 g) adiabatic calorimetry	261.15 ± 1.3
223.88 K, Crystal, Vacuum adiabatic calorimetry	181.95 ± 0.38
224.15 K, Crystal, Vacuum adiabatic calorimetry	182.18 ± 0.38
224.16 K, Liquid, Small (less than 1 g) adiabatic calorimetry	260.59 ± 1.2
225.24 K, Liquid, Small (less than 1 g) adiabatic calorimetry	261.29 ± 1.3
225.25 K, Crystal, Vacuum adiabatic calorimetry	182.95 ± 0.38
225.39 K, Metastable crystal, Small (less than 1 g) adiabatic calorimetry	184.41 ± 0.94
225.86 K, Liquid, Small (less than 1 g) adiabatic calorimetry	261.58 ± 1.3
226.23 K, Crystal, Vacuum adiabatic calorimetry	183.69 ± 0.38
226.24 K, Liquid, Small (less than 1 g) adiabatic calorimetry	260.96 ± 1.2
226.63 K, Crystal, Vacuum adiabatic calorimetry	183.97 ± 0.38
227.24 K, Liquid, Small (less than 1 g) adiabatic calorimetry	261.74 ± 1.3
227.8 K, Metastable crystal, Small (less than 1 g) adiabatic calorimetry	186.11 ± 0.95
228 K, Crystal, Vacuum adiabatic calorimetry	184.96 ± 0.39
228.15 K, Liquid, Small (less than 1 g) adiabatic calorimetry	262.01 ± 1.3
228.31 K, Crystal, Vacuum adiabatic calorimetry	185.39 ± 0.39
228.33 K, Liquid, Small (less than 1 g) adiabatic calorimetry	261.35 ± 1.2
229.25 K, Liquid, Small (less than 1 g) adiabatic calorimetry	262.21 ± 1.3
229.38 K, Crystal, Vacuum adiabatic calorimetry	186.04 ± 0.39
230.21 K, Metastable crystal, Small (less than 1 g) adiabatic calorimetry	187.89 ± 0.95
230.39 K, Crystal, Vacuum adiabatic calorimetry	186.96 ± 0.39
230.42 K, Liquid, Small (less than 1 g) adiabatic calorimetry	261.8 ± 1.2
230.44 K, Liquid, Small (less than 1 g) adiabatic calorimetry	262.44 ± 1.3
230.75 K, Crystal, Vacuum adiabatic calorimetry	187.19 ± 0.39
231.26 K, Liquid, Small (less than 1 g) adiabatic calorimetry	262.65 ± 1.3
232.13 K, Crystal, Vacuum adiabatic calorimetry	188.21 ± 0.39
232.47 K, Crystal, Vacuum adiabatic calorimetry	188.55 ± 0.39
232.51 K, Liquid, Small (less than 1 g) adiabatic calorimetry	262.24 ± 1.2
232.62 K, Metastable crystal, Small (less than 1 g) adiabatic calorimetry	189.5 ± 0.96
232.74 K, Liquid, Small (less than 1 g) adiabatic calorimetry	263.08 ± 1.3
233.01 K, Crystal, Vacuum adiabatic calorimetry	189.36 ± 0.39
233.27 K, Liquid, Small (less than 1 g) adiabatic calorimetry	263.01 ± 1.3
233.5 K, Crystal, Vacuum adiabatic calorimetry	189.25 ± 0.39
234.55 K, Crystal, Vacuum adiabatic calorimetry	190.14 ± 0.39
234.61 K, Liquid, Small (less than 1 g) adiabatic calorimetry	262.58 ± 1.3
234.88 K, Crystal, Vacuum adiabatic calorimetry	190.37 ± 0.39
235.03 K, Liquid, Small (less than 1 g) adiabatic calorimetry	263.49 ± 1.3
235.28 K, Liquid, Small (less than 1 g) adiabatic calorimetry	263.42 ± 1.3
235.72 K, Metastable crystal, Small (less than 1 g) adiabatic calorimetry	191.63 ± 0.97
236.26 K, Crystal, Vacuum adiabatic calorimetry	191.4 ± 0.39
236.63 K, Crystal, Vacuum adiabatic calorimetry	191.86 ± 0.39
236.7 K, Liquid, Small (less than 1 g) adiabatic calorimetry	263.12 ± 1.3
237.29 K, Liquid, Small (less than 1 g) adiabatic calorimetry	263.79 ± 1.3
237.33 K, Liquid, Small (less than 1 g) adiabatic calorimetry	263.86 ± 1.3
237.63 K, Crystal, Vacuum adiabatic calorimetry	192.56 ± 0.39
238.14 K, Metastable crystal, Small (less than 1 g) adiabatic calorimetry	193.62 ± 0.97
238.71 K, Crystal, Vacuum adiabatic calorimetry	193.49 ± 0.39
238.79 K, Liquid, Small (less than 1 g) adiabatic calorimetry	264.33 ± 1.3
239.01 K, Crystal, Vacuum adiabatic calorimetry	193.7 ± 0.39
239.3 K, Liquid, Small (less than 1 g) adiabatic calorimetry	264.2 ± 1.3
239.63 K, Liquid, Small (less than 1 g) adiabatic calorimetry	264.39 ± 1.3
240.21 K, Liquid, Small (less than 1 g) adiabatic calorimetry	263.92 ± 1.3
240.38 K, Crystal, Vacuum adiabatic calorimetry	194.84 ± 0.4
240.53 K, Metastable crystal, Small (less than 1 g) adiabatic calorimetry	195.14 ± 0.98
240.78 K, Crystal, Vacuum adiabatic calorimetry	195.37 ± 0.4
240.89 K, Liquid, Small (less than 1 g) adiabatic calorimetry	264.51 ± 1.3
241.32 K, Liquid, Small (less than 1 g) adiabatic calorimetry	264.76 ± 1.3
241.76 K, Crystal, Vacuum adiabatic calorimetry	196.04 ± 0.4
241.93 K, Liquid, Small (less than 1 g) adiabatic calorimetry	265.02 ± 1.3
242.32 K, Liquid, Small (less than 1 g) adiabatic calorimetry	264.51 ± 1.3
242.39 K, Crystal, Vacuum adiabatic calorimetry	197.23 ± 0.4
242.86 K, Crystal, Vacuum adiabatic calorimetry	197.07 ± 0.4
242.91 K, Metastable crystal, Small (less than 1 g) adiabatic calorimetry	197.2 ± 0.99
243.14 K, Crystal, Vacuum adiabatic calorimetry	197.19 ± 0.4
243.34 K, Liquid, Small (less than 1 g) adiabatic calorimetry	265.19 ± 1.3
244.23 K, Liquid, Small (less than 1 g) adiabatic calorimetry	265.58 ± 1.3
